Measurements reported in ChEMBL document CHEMBL5370625, “Design of Next-Generation DGAT2 Inhibitor PF-07202954 with Longer Predicted Half-Life” (ACS Med Chem Lett, 2023).

What was measured:
[1] = human, hepatocytes
Description: Apparent intrinsic clearance in human hepatocytes measured per million cells by LC-MS/MS analysis

physchem [2] = conditions: octanol/aqueous buffer, pH 7.4
in vitro = conditions: dog, MDCK
Description: Apparent permeability in MDCKII-LE cells incubated for 1.5 hrs

physchem [3] = assay: physchem
Description: Dissociation constant, pKa of the compound

[4] = target: T1, Diacylglycerol O-acyltransferase 2 (Homo sapiens, UniProt Q96PD7)
T1 sequence (Q96PD7 whole entry): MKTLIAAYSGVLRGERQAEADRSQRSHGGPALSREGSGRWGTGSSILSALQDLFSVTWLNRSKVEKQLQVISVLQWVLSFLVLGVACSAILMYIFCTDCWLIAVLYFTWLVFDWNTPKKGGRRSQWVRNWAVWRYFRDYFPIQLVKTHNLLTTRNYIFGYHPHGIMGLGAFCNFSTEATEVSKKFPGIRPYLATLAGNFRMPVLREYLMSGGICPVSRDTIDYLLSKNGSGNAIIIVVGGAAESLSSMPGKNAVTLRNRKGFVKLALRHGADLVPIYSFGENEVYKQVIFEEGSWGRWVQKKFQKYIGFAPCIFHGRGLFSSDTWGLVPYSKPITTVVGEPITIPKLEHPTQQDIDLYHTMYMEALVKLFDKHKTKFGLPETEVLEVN
Description: Inhibition of human DGAT2 using 14C decanoyl-CoA as a substrate pre incubated for 2 hrs followed by substrate addition measured after 40 mins by Trilux Microbeta reader analysis

[5] = Half life of the compound in Beagle dog plasma at 1 mg/kg, iv; assay type: ADME, organism-based, Canis lupus familiaris
[6] = target: T2, Diacylglycerol O-acyltransferase 1 (Homo sapiens, UniProt O75907); assay: Inhibition of DGAT1 (unknown origin)
T2 sequence (O75907 whole entry): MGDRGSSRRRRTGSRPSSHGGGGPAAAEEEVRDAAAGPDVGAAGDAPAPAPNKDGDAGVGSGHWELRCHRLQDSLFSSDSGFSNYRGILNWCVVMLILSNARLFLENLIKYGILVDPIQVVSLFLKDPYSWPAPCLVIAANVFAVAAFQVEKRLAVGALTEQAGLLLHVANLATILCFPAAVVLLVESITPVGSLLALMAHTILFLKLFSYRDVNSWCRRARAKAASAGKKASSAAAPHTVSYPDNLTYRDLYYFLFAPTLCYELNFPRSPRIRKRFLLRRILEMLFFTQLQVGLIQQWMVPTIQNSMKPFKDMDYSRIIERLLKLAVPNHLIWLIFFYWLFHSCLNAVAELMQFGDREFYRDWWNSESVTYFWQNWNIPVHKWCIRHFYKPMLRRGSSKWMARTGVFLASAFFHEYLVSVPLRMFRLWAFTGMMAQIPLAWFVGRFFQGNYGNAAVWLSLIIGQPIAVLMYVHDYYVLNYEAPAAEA

[7] = Oral bioavailability in Wistar Han rat; assay type: ADME, organism-based; conditions: in vivo
[8] = Clearance in po dosed cynomolgus monkey plasma; assay type: ADME, organism-based, Macaca fascicularis
[9] = Clearance in po dosed Wistar Han rat; assay type: ADME, organism-based; conditions: in vivo
[10] = Half life of the compound in Wistar Han rat at 1 mg/kg, iv; assay type: ADME, organism-based; conditions: in vivo
[11] = target: T3, Diacylglycerol O-acyltransferase 2 (Rattus norvegicus, UniProt Q5FVP8); assay: Inhibition of rat DGAT2 using 14C decanoyl-CoA as a substrate pre incubated for 2 hrs followed by substrate addition measured after 40 mins by Trilux Microbeta reader analysis
T3 sequence (Q5FVP8 whole entry): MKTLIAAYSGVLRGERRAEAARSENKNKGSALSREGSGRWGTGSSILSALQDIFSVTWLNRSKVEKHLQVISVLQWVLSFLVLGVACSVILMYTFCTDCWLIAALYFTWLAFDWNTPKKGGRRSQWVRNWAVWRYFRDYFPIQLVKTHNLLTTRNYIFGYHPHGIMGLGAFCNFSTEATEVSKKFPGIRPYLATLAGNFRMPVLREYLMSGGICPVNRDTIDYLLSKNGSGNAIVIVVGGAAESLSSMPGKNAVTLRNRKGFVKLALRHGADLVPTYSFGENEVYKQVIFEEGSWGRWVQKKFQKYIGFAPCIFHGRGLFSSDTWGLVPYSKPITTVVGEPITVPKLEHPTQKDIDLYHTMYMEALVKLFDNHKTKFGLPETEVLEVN

Rattus norvegicus [12] = assay: Hepatoprotective activity in po dosed western diet induced Sprague-Dawley rat model assessed as reduction in liver triglycerides level administered 7 days starting from day 14 post diet followed by single dose administration on day 8 and measured 2 hrs post last dose; assay type: functional, organism-based; conditions: dose 3-100 mg/kg, time 8.0 day
Rattus norvegicus [13] = assay: Hepatoprotective activity in western diet induced Sprague-Dawley rat model assessed as reduction in plasma triglycerides level at 100 mg/kg, po administered 7 days starting from day 14 post diet followed by single dose administration on day 8 and measured 2 hrs post last dose relative to control; assay type: functional; parameters: scale not given: the % may be the effect or the level left; conditions: time 8 day
Rattus norvegicus [14] = assay: Hepatoprotective activity in western diet induced Sprague-Dawley rat model assessed as reduction in liver triglycerides level at 100 mg/kg, po administered 7 days starting from day 14 post diet followed by single dose administration on day 8 and measured 2 hrs post last dose relative to control; assay type: functional; parameters: scale not given: the % may be the effect or the level left; conditions: time 8 day
[15] = Renal clearance in Beagle dog plasma at 1 mg/kg,iv; assay type: ADME, organism-based, Canis lupus familiaris
Rattus norvegicus [16] = assay: Hepatoprotective activity in po dosed high sucrose diet induced Sprague-Dawley rat model assessed as reduction in plasma triglycerides level measured after 2 to 4 hrs post last dose; assay type: functional, organism-based; conditions: dose 10-100 mg/kg, time 2-4 hrs
Rattus norvegicus [17] = assay: Hepatoprotective activity in po dosed high sucrose diet induced Sprague-Dawley rat model assessed as reduction in liver triglycerides level measured after 2 to 4 hrs post last dose; assay type: functional, organism-based; conditions: dose 10-100 mg/kg, time 2-4 hrs
[18] = Volume of distribution at steady state in Beagle dog plasma at 1 mg/kg, iv; assay type: ADME, organism-based, Canis lupus familiaris; conditions: read-out: Vdss
[19] = Renal clearance in po dosed cynomolgus monkey; assay type: ADME, organism-based, Macaca fascicularis; conditions: in vivo
[20] = Volume of distribution at steady state in po dosed cynomolgus monkey; assay type: ADME, organism-based, Macaca fascicularis; conditions: in vivo
[21] = Half life of the compound in po dosed cynomolgus monkey; assay type: ADME, organism-based, Macaca fascicularis; conditions: in vivo
Rattus norvegicus [22] = assay: Hepatoprotective activity in po dosed western diet induced Sprague-Dawley rat model assessed as reduction in plasma triglycerides level administered 7 days starting from day 14 post diet followed by single dose administration on day 8 and measured 2 hrs post last dose; assay type: functional, organism-based; conditions: dose 3-100 mg/kg, time 8.0 day
[23] = Volume of distribution at steady state in po dosed Wistar Han rat; assay type: ADME, organism-based; conditions: in vivo
[24] = Oral bioavailability in cynomolgus monkey; assay type: ADME, organism-based, Macaca fascicularis; conditions: in vivo
[25] = Renal clearance in po dosed Wistar Han rat; assay type: ADME, organism-based; conditions: in vivo
[26] = Apparent intrinsic clearance in human hepatocytes measured per million cells at 1 uM incubated for 4 hrs by relay method; assay type: ADME, cell-based, Hepatocyte
[27] = Half life of the compound in cynomolgus monkey at 1 mg/kg, iv; assay type: ADME, organism-based, Macaca fascicularis; conditions: in vivo
[28] = Clearance in Beagle dog plasma at 1 mg/kg,iv; assay type: ADME, organism-based, Canis lupus familiaris
[29] = Volume of distribution at steady state in Wistar Han rat at 1 mg/kg, iv; assay type: ADME, organism-based; conditions: in vivo, read-out: Vdss
[30] = Clearance in Wistar Han rat plasma at 1 mg/kg,iv; assay type: ADME, organism-based
[31] = Renal clearance in Wistar Han rat at 1 mg/kg, iv; assay type: ADME, organism-based; conditions: in vivo
[32] = Half life of the compound in po dosed Wistar Han rat; assay type: ADME, organism-based; conditions: in vivo
[33] = Renal clearance in cynomolgus monkey plasma at 1 mg/kg, iv; assay type: ADME, organism-based, Macaca fascicularis
[34] = Volume of distribution at steady state in cynomolgus monkey at 1 mg/kg, iv; assay type: ADME, organism-based, Macaca fascicularis; conditions: in vivo, read-out: Vdss

For `CCOc1cccnc1Oc1cncc(-c2ncc(C(=O)N[C@@H]3CNCC[C@@H]3F)cn2)c1`, the “CLH(app)” value [1] was < 1.9 µL/min, the logD at 1 h (physchem [2]) was 0.96 and the Papp at 1.5 h (in vitro) was 4.7 ×10⁻⁶ cm/s. It also gave a pKa (physchem [3]) of 8 and an IC50 [4] of 0.016 µM.
For `CCOc1cccnc1Oc1cncc(-c2ncc(C(=O)N[C@H]3CCNC3)cn2)c1`, the “CLH(app)” value [1] was < 1.8 µL/min, the logD at 1 h (physchem [2]) was -0.9 and the Papp at 1.5 h (in vitro) was 0.39 ×10⁻⁶ cm/s. For the same compound, the pKa (physchem [3]) was 9.2 and the IC50 [4] was 0.5 µM.
With `CCOc1cccnc1Oc1cncc(-c2ncc(C(=O)N[C@@H]3CNC[C@H](F)C3)cn2)c1` (racemic) the “CLH(app)” value [1] was 6.6 µL/min, the logD at 1 h (physchem [2]) was 1.7 and the Papp at 1.5 h (in vitro) was 13 ×10⁻⁶ cm/s. The pKa (physchem [3]) was 6.8 and the IC50 [4] was 0.2 µM.
In the case of `CCOc1cccnc1Oc1cncc(-c2ncc(C(=O)N[C@@H]3CNC[C@@H](F)C3)cn2)c1`, the half-life [5] is reported as 1.5 h, the IC50 [6] is reported as > 50 µM and the bioavailability [7] is reported as 12%. For the same compound, the CL/F [8] was 17 mL/min/kg, the CL/F [9] was 64 mL/min/kg and the half-life [10] was 0.9 h. For the same compound, the IC50 [11] was 0.017 µM, the Activity (Rattus norvegicus [12]) was “Dose-Dependent Effect” and the Activity (Rattus norvegicus [13]) was 71%. It also gave an Activity (Rattus norvegicus [14]) of 48%, a logD at 1 h (physchem [2]) of 1.4 and a Papp at 1.5 h (in vitro) of 2.9 ×10⁻⁶ cm/s. The CL renal [15] was 5.5 mL/min/kg, the Activity (Rattus norvegicus [16]) was “Dose-Dependent Effect” and the Activity (Rattus norvegicus [17]) was “Dose-Dependent Effect”. For the same compound, the Vd [18] was 2.1 L/kg, the CL renal [19] was 0.29 mL/min/kg and the Vdss [20] was 1.6 L/kg. The half-life [21] was 6.5 h, the Activity (Rattus norvegicus [22]) was “Dose-Dependent Effect” and the Vdss [23] was 2.7 L/kg. For the same compound, the bioavailability [24] was 21%, the CL renal [25] was 7.5 mL/min/kg and the “CLH(app)” value [26] was 0.99 µL/min. It also gave a half-life [27] of 1.4 h and a clearance [28] of 22 mL/min/kg.
For `CCOc1cccnc1Oc1cncc(-c2ncc(C(=O)NC3CCNCC3)cn2)c1`, the logD at 1 h (physchem [2]) was -0.19, the Papp at 1.5 h (in vitro) was 1.3 ×10⁻⁶ cm/s and the pKa (physchem [3]) was 10.1. It also gave an IC50 [4] of 22 µM.
For `CCOc1cccnc1Oc1cncc(-c2ncc(C(=O)N[C@@H]3CCNC3)cn2)c1`, the Vd [29] was 4.1 L/kg, the “CLH(app)” value [1] was < 3 µL/min and the bioavailability [7] was < 1%. The clearance [30] was 51 mL/min/kg, the half-life [10] was 1.9 h and the logD at 1 h (physchem [2]) was -0.15. The Papp at 1.5 h (in vitro) was 0.68 ×10⁻⁶ cm/s, the pKa (physchem [3]) was 9.2 and the IC50 [4] was 0.41 µM. The CL renal [31] was 5.2 mL/min/kg.
For `CCOc1cccnc1Oc1cncc(-c2ncc(C(=O)N[C@@H]3CNCCC3(F)F)cn2)c1`, the “CLH(app)” value [1] was 4.7 µL/min, the logD at 1 h (physchem [2]) was 1.8 and the Papp at 1.5 h (in vitro) was 18 ×10⁻⁶ cm/s. For the same compound, the pKa (physchem [3]) was 6.4.
For `CCOc1cccnc1Oc1cncc(-c2ncc(C(=O)N[C@@H]3CNCC(F)(F)C3)cn2)c1`, the “CLH(app)” value [1] was 9.3 µL/min, the logD at 1 h (physchem [2]) was 2.3 and the Papp at 1.5 h (in vitro) was 14 ×10⁻⁶ cm/s.
With `CCOc1cccnc1Oc1cncc(-c2ncc(C(=O)N[C@@H]3CNCC[C@H]3F)cn2)c1` the “CLH(app)” value [1] was < 1.9 µL/min, the logD at 1 h (physchem [2]) was 1.4 and the Papp at 1.5 h (in vitro) was 8.8 ×10⁻⁶ cm/s.
With `CCOc1cccnc1Oc1cncc(-c2ncc(C(=O)N[C@H]3CNC[C@H](F)C3)cn2)c1` the “CLH(app)” value [1] was < 1.9 µL/min, the logD at 1 h (physchem [2]) was 1.3 and the Papp at 1.5 h (in vitro) was 2.5 ×10⁻⁶ cm/s.
With `CCOc1cccnc1Oc1cncc(-c2ncc(C(=O)N[C@H]3CCOC3)cn2)c1` [PF-06865571] the bioavailability [7] was 31%, the half-life [32] was 1.4 h and the CL renal [33] was < 0.1 mL/min/kg. The logD at 1 h (physchem [2]) was 1.9, the Papp at 1.5 h (in vitro) was 19 ×10⁻⁶ cm/s and the CL renal [31] was < 0.1 mL/min/kg. It also gave a Vd [34] of 0.71 L/kg, a half-life [21] of 3.9 h and a bioavailability [24] of 48%. For the same compound, the “CLH(app)” value [26] was 3.9 µL/min.
In the case of `CCOc1cccnc1Oc1cncc(-c2ncc(C(=O)N[C@H]3CC[C@@H](C(F)(F)F)NC3)cn2)c1` (relative stereo), the “CLH(app)” value [1] is reported as 38 µL/min, the logD at 1 h (physchem [2]) is reported as 2.8 and the Papp at 1.5 h (in vitro) is reported as 30 ×10⁻⁶ cm/s. It also gave a pKa (physchem [3]) of 4.5 and an IC50 [4] of 0.0044 µM.
